Patent US9872492B2, “(S)-abscisic acid derivatives for thinning” (Valent BioSciences Corporation, priority 2015, dated 2018)

Columns and labels:
Format in all cases: in vivo
Rich Lady peach = test: Thinning study on Rich Lady peach (Yakima, Washington), Example 5; conditions: for Effect on fruit size (percent fruit 125 count/box or larger), in words / Effect on hand thinning required / fruit drop, in words: 30-300 ppm 3′-methyl-(S)-abscisic acid, 300-1000 ppm S-ABA; for Harvest percent fruit 125 ct/box or larger / Number hand thinned per tree: 0.05% Regulaid surfactant; for Number hand thinned per tree: hand thinned after fruit drop period
Description: A study was conducted in Washington (Yakima, Wash.) to determine the effect of S-ABA and 3′-methyl-(S)-abscisic acid on Rich Lady peach thinning. In this study, the initial fruit set prior to treatment was relatively uniform across the treatment groups with the exception of the 300 ppm 3′-methyl-(S)-abscisic acid treatment that had lower fruit set. Following the treatments and a period of time for fruit to drop, the trees were hand-thinned to achieve a desired commercially optimal fruit load.

Gala apple [1] = test: Thinning study of Gala apple (Washington), chemical thinning followed by hand thinning, Example 4; conditions: in combination with 6-benzyladenine 28 g/acre; 300 ppm derivative vs 1000 ppm S-ABA
Description: Another thinning study of Gala apple was carried out in Washington using a procedure of chemical thinning followed by hand thinning. For chemical thinning, trees (size matched across all the treatment groups) were sprayed with 6-benzyladenine combined with S-ABA or S-ABA derivatives at about the 10 mm fruit diameter timing, as described in Example 1. After a period known as “June drop,” the trees were further thinned by hand to achieve the essentially identical fruit load that was deemed to be the appropriate crop load. This practice will ensure a uni-size apple crop. With this protocol, a lower requirement for the number of fruits removed by hand indicates a more efficacious chemical thinning treatment.

Gala apple [2] = test: Thinning study of Gala apple (Michigan), repeat, Example 3
From the text: In a study carried out in Michigan, 3'-methyl-(S)-abscisic acid was mixed with 6-benzyladenine and compared with a mixture of S-ABA and 6-benzyladenine. 3'-Methyl-(S)-abscisic acid was formulated as a potassium salt in an aqueous. S-ABA was formulated as potassium salt in an aqueous formulation. […]®, a 2% (w/w) 6-benzyladenine formulation, was used as the source of 6-benzyladenine (“6-BA” in the following tables). The treatments were applied to McIntosh apple in fields when the fruit reached 10 mm in size. Six single tree replicates were sprayed with the equivalent of 100 gallons per acre using a motorized backpack mist blower. All the trees in the study were matched to about the same size and initial cropload. The fruit was harvested at maturity and the average fruit weights for each treatment group were recorded. The results are shown in Table 1 (the lower the number of fruits, the greater the thinning effect of the treatment). The thinning study of Gala apple was repeated in Gala in Michigan following the same protocol described in Example 1. In addition to S-ABA and 3'methyl-(S)-ABA, 3'-propargyl-(S)-ABA was also tested for this effect.

Gala apple [3] = test: Thinning study of Gala apple (Michigan), Example 2; conditions: in combination with 6-benzyladenine 28 g/acre
From the text: In a study carried out in Michigan, 3'-methyl-(S)-abscisic acid was mixed with 6-benzyladenine and compared with a mixture of S-ABA and 6-benzyladenine. 3'-Methyl-(S)-abscisic acid was formulated as a potassium salt in an aqueous. S-ABA was formulated as potassium salt in an aqueous formulation. […]®, a 2% (w/w) 6-benzyladenine formulation, was used as the source of 6-benzyladenine (“6-BA” in the following tables). The treatments were applied to McIntosh apple in fields when the fruit reached 10 mm in size. Six single tree replicates were sprayed with the equivalent of 100 gallons per acre using a motorized backpack mist blower. All the trees in the study were matched to about the same size and initial cropload. The fruit was harvested at maturity and the average fruit weights for each treatment group were recorded. The results are shown in Table 1 (the lower the number of fruits, the greater the thinning effect of the treatment). A further study was carried out in Michigan, following the same protocol as described in Example 1.

McIntosh apple = test: Thinning study of McIntosh apple (Michigan), Example 1; conditions: in combination with 6-benzyladenine 28 g/acre; 100 ppm derivative vs 1000 ppm S-ABA
From the text: In a study carried out in Michigan, 3'-methyl-(S)-abscisic acid was mixed with 6-benzyladenine and compared with a mixture of S-ABA and 6-benzyladenine. 3'-Methyl-(S)-abscisic acid was formulated as a potassium salt in an aqueous. S-ABA was formulated as potassium salt in an aqueous formulation. […]®, a 2% (w/w) 6-benzyladenine formulation, was used as the source of 6-benzyladenine (“6-BA” in the following tables). The treatments were applied to McIntosh apple in fields when the fruit reached 10 mm in size. Six single tree replicates were sprayed with the equivalent of 100 gallons per acre using a motorized backpack mist blower. All the trees in the study were matched to about the same size and initial cropload. The fruit was harvested at maturity and the average fruit weights for each treatment group were recorded. The results are shown in Table 1 (the lower the number of fruits, the greater the thinning effect of the treatment).

SMILES	Effect on fruit size (percent fruit 125 count/box or larger), in words (Rich Lady peach)	Effect on hand thinning required / fruit drop, in words (Rich Lady peach)	Harvest percent fruit 125 ct/box or larger (Rich Lady peach; 30 ppm) [%]	Number hand thinned per tree (Rich Lady peach; 30 ppm) [per tree]	Harvest percent fruit 125 ct/box or larger (Rich Lady peach; 100 ppm) [%]	Number hand thinned per tree (Rich Lady peach; 100 ppm) [per tree]	Harvest percent fruit 125 ct/box or larger (Rich Lady peach; 300 ppm) [%]	Number hand thinned per tree (Rich Lady peach; 300 ppm) [per tree]	Thinning potency relative to S-ABA (in words) (Gala apple [1])	Thinning potency relative to S-ABA (in words) (Gala apple [2]; in combination with 6-benzyladenine 28 g/acre, 100 ppm derivative vs 300 ppm S-ABA)	Thinning potency relative to S-ABA (in words) (Gala apple [3])	Thinning potency relative to S-ABA (McIntosh apple)	Thinning effect, in words (Gala apple [2]; in combination with 6-benzyladenine)	Harvest percent fruit 125 ct/box or larger (Rich Lady peach; 1000 ppm) [%]	Number hand thinned per tree (Rich Lady peach; 1000 ppm) [per tree]
CC1=C(C)[C@](O)(/C=C/C(C)=C\C(=O)O)C(C)(C)CC1=O [3′-methyl-(S)-ABA, (2Z,4E)-5-((S)-1-hydroxy-2,3,6,6-tetramethyl-4-oxocyclohex-2-en-1-yl)-3-methylpenta-2,4-dienoic acid]	increases with higher use rate	caused fruit drop (thinning)	25.0	61.8	30.2	59.2	37.6	45.4	about three times more potent than S-ABA	about three times more potent than S-ABA	more potent than S-ABA	about 10 times	–	–	–
C#CCC1=C(C)[C@](O)(/C=C/C(C)=C\C(=O)O)C(C)(C)CC1=O [3′-propargyl-(S)-ABA, (2Z,4E)-5-((S)-1-hydroxy-2,6,6-trimethyl-4-oxo-3-(prop-2-yn-1-yl)cyclohex-2-en-1-yl)-3-methylpenta-2,4-dienoic acid]	–	–	–	–	–	–	–	–	about three times more potent than S-ABA	–	–	–	caused significant thinning	–	–
CC1=CC(=O)CC(C)(C)[C@@]1(O)/C=C/C(C)=C/C(=O)O [S-ABA, (S)-abscisic acid]	small increase in the fruit size in a dose dependent manner	did not reduce the hand thinning required	–	–	–	–	27.6	61.2	–	–	–	–	–	29.7	67.8
